Experimental data reported in the NIST ThermoML archive (doi:10.1016/j.tca.2009.07.008).

Experiment: mn = molality of the nth substance listed, in mol/kg
Conditions: 303.15 K, 101 kPa, Liquid, Capillary tube (Ostwald / Ubbelohde) method

CCCCN [1-butanamine] + C1CCOC1
Conditions	viscosity [mPa·s]
m1 = 0.1429	0.329
m1 = 0.2304	0.3312
m1 = 0.5054	0.336
m1 = 0.588	0.3398
m1 = 0.7153	0.3442
m1 = 0.8391	0.3481
m1 = 1.009	0.351
m1 = 1.27	0.3549
m1 = 1.407	0.3619

CCCCN [1-butanamine] + C1COCCO1
Conditions	viscosity [mPa·s]
m1 = 0.1085	1.06
m1 = 0.2365	1.046
m1 = 0.3679	1.032
m1 = 0.4745	1.02
m1 = 0.5834	1.007
m1 = 0.7574	0.9893
m1 = 0.8872	0.9764
m1 = 1.004	0.9652
m1 = 1.116	0.9543

CCCCNCCCC [dibutylamine] + C1CCOC1
Conditions	viscosity [mPa·s]
m1 = 0.1402	0.3333
m1 = 0.2993	0.3417
m1 = 0.4313	0.3498
m1 = 0.5953	0.3567
m1 = 0.7592	0.3648
m1 = 0.8997	0.3735
m1 = 1.027	0.3806
m1 = 1.201	0.3912
m1 = 1.381	0.4015

CCCCNCCCC [dibutylamine] + C1COCCO1
Conditions	viscosity [mPa·s]
m1 = 0.1225	1.065
m1 = 0.2369	1.053
m1 = 0.3608	1.04
m1 = 0.4533	1.031
m1 = 0.594	1.019
m1 = 0.7122	1.006
m1 = 0.8855	0.9937
m1 = 0.9669	0.9865
m1 = 1.138	0.9766

CCCNCCC [dipropylamine] + C1CCOC1
Conditions	viscosity [mPa·s]
m1 = 0.1794	0.332
m1 = 0.285	0.335
m1 = 0.4155	0.3388
m1 = 0.5881	0.3437
m1 = 0.7109	0.3491
m1 = 0.9435	0.3545
m1 = 1.051	0.3574
m1 = 1.198	0.364
m1 = 1.357	0.3717

CCCNCCC [dipropylamine] + C1COCCO1
Conditions	viscosity [mPa·s]
m1 = 0.0998	1.062
m1 = 0.2282	1.05
m1 = 0.341	1.039
m1 = 0.4787	1.027
m1 = 0.6261	1.012
m1 = 0.7266	1.001
m1 = 0.8461	0.9902
m1 = 0.9821	0.9801
m1 = 1.149	0.9661

CCCN [propan-1-amine] + C1CCOC1
Conditions	viscosity [mPa·s]
m1 = 0.1123	0.328
m1 = 0.2842	0.3315
m1 = 0.3986	0.3329
m1 = 0.5609	0.3353
m1 = 0.7487	0.3395
m1 = 0.8957	0.3412
m1 = 1.002	0.3436
m1 = 1.139	0.3453
m1 = 1.377	0.3513

CCCN [propan-1-amine] + C1COCCO1
Conditions	viscosity [mPa·s]
m1 = 0.1086	1.06
m1 = 0.2456	1.043
m1 = 0.3295	1.028
m1 = 0.478	1.014
m1 = 0.5767	0.9987
m1 = 0.7164	0.9852
m1 = 0.8321	0.9693
m1 = 1.028	0.9504
m1 = 1.116	0.9395
